# Source: patent publication US8802895B2, “Amide derivatives of benzene-sulfonanilide, pharmaceutical composition thereof and method for cancer treatment using the same” (Cleveland State University, priority 2010, dated 2014)
# Key:
# [1] = test system: HT29; experiment: NCIDTP 60 cancer cell lines screening, Colon Cancer panel; format: cell-based
# [2] = test system: MCF7; experiment: NCIDTP 60 cancer cell lines screening, Breast Cancer panel; format: cell-based
# [3] = test system: MDA-MB-468; experiment: as above; format: cell-based
# [4] = test system: MDA-MB-231/ATCC; experiment: as above; format: cell-based
# [5] = test system: BT-549; experiment: as above; format: cell-based
# [6] = test system: A498; experiment: NCIDTP 60 cancer cell lines screening, Renal Cancer panel; format: cell-based
# [7] = test system: SK-MEL-28; experiment: NCIDTP 60 cancer cell lines screening, Melanoma panel; format: cell-based
# [8] = test system: MOLT-4; experiment: NCIDTP 60 cancer cell lines screening, Leukemia panel; format: cell-based
# [9] = test system: SF-295; experiment: NCIDTP 60 cancer cell lines screening, CNS Cancer panel; format: cell-based
# [10] = test system: ACHN; experiment: NCIDTP 60 cancer cell lines screening, Renal Cancer panel; format: cell-based
# [11] = test system: HL-60(TB); experiment: NCIDTP 60 cancer cell lines screening, Leukemia panel; format: cell-based
# [12] = test system: HCC-2998; experiment: NCIDTP 60 cancer cell lines screening, Colon Cancer panel; format: cell-based
# [13] = test system: HT29 colon cancer xenograft; experiment: In vivo study, HT29 colon cancer xenograft model (FIG. 11); design: species or system BALB/c athymic nude mice; details: HT29 xenograft in nude mice, 5 mg/kg/day, i.p., 20 days
# Source text: HT29 colon cancer xenograft model is a generally accepted in vivo cancer model and the formed tumor grows very aggressively. […] In the experiment, HT29 xenografts were established in ovariectomized 5- to 6-week-old BALB/c athymic nude mice (Case Western Reserve University animal facility). When tumors reach 150-200 mm^3 (i.e., in 2-4 weeks), the animals are randomly allocated (n=3 per group) to be treated with the compounds or vehicle (1% Tween 80) administered via i.p. Tumor growth was assessed and tumor weights were measured at the end of the experiment after the mice were killed. The animal care was in accordance with institutional guidelines.
# [14] = test system: HCT-116; experiment: NCIDTP 60 cancer cell lines screening, Colon Cancer panel; format: cell-based
# [15] = test system: DU-145; experiment: NCIDTP 60 cancer cell lines screening, Prostate Cancer panel; format: cell-based
# [16] = test system: SK-MEL-2; experiment: NCIDTP 60 cancer cell lines screening, Melanoma panel; format: cell-based
smiles,measurement,setting,value
"Cc1ccc(C)c(COc2cc(NC(=O)c3ccc4c(c3)OCO4)ccc2N(C)S(C)(=O)=O)c1 [Compound #10, Benzo[1,3]dioxole-5-carboxylic acid [3-(2,5-dimethyl-benzyloxy)-4-(methanesulfonyl-methyl-amino)-phenyl]-amide]",TGI,[1]; HT29,4.19E−7 Molar
same,Percent Growth,"[1]; HT29, Log10 Concentration −4.0 Molar",−48%
same,Percent Growth,"[1]; HT29, Log10 Concentration −5.0 Molar",−48%
same,Percent Growth,"[1]; HT29, Log10 Concentration −6.0 Molar",−26%
same,Percent Growth,"[1]; HT29, Log10 Concentration −7.0 Molar",44%
same,Percent Growth,"[1]; HT29, Log10 Concentration −8.0 Molar",101%
same,CC50,"[1]; Homo sapiens, HT-29, read-out: LC50",> 100000 nM
same,GI50,"[1]; Homo sapiens, HT-29, HT29",77.2 nM
same,"inhibition of cancer cell growth (NCI screening results, in words)",[1]; many types of cancer cell including HT29 colon cancer cells,very potent to inhibit the growth
same,GI50,"[2]; Homo sapiens, MCF7",120 nM
same,CC50,"[2]; Homo sapiens, MCF7, read-out: LC50",> 100000 nM
same,TGI,[2]; MCF7,>1.00E−4 Molar
same,Percent Growth,"[2]; MCF7, Log10 Concentration −4.0 Molar",7%
same,Percent Growth,"[2]; MCF7, Log10 Concentration −5.0 Molar",10%
same,Percent Growth,"[2]; MCF7, Log10 Concentration −6.0 Molar",16%
same,Percent Growth,"[2]; MCF7, Log10 Concentration −7.0 Molar",53%
same,Percent Growth,"[2]; MCF7, Log10 Concentration −8.0 Molar",92%
same,GI50,"[3]; Homo sapiens, MDA-MB-468",155 nM
same,CC50,"[3]; Homo sapiens, MDA-MB-468, read-out: LC50",19900 nM
same,TGI,[3]; MDA-MB-468,4.01E−7 Molar
same,Percent Growth,"[3]; MDA-MB-468, Log10 Concentration −4.0 Molar",−56%
same,Percent Growth,"[3]; MDA-MB-468, Log10 Concentration −5.0 Molar",−47%
same,Percent Growth,"[3]; MDA-MB-468, Log10 Concentration −6.0 Molar",−48%
same,Percent Growth,"[3]; MDA-MB-468, Log10 Concentration −7.0 Molar",73%
same,Percent Growth,"[3]; MDA-MB-468, Log10 Concentration −8.0 Molar",85%
same,CC50,"[4]; Homo sapiens, MDA-MB-231, read-out: LC50",> 100000 nM
same,GI50,"[4]; Homo sapiens, MDA-MB-231/ATCC",256 nM
same,TGI,[4]; MDA-MB-231/ATCC,9.26E−7 Molar
same,Percent Growth,"[4]; MDA-MB-231/ATCC, Log10 Concentration −4.0 Molar",−7%
same,Percent Growth,"[4]; MDA-MB-231/ATCC, Log10 Concentration −5.0 Molar",−17%
same,Percent Growth,"[4]; MDA-MB-231/ATCC, Log10 Concentration −6.0 Molar",−3%
same,Percent Growth,"[4]; MDA-MB-231/ATCC, Log10 Concentration −7.0 Molar",87%
same,Percent Growth,"[4]; MDA-MB-231/ATCC, Log10 Concentration −8.0 Molar",90%
same,TGI,[5]; BT-549,>1.00E−4 Molar
same,Percent Growth,"[5]; BT-549, Log10 Concentration −4.0 Molar",21%
same,Percent Growth,"[5]; BT-549, Log10 Concentration −5.0 Molar",13%
same,Percent Growth,"[5]; BT-549, Log10 Concentration −6.0 Molar",45%
same,Percent Growth,"[5]; BT-549, Log10 Concentration −7.0 Molar",70%
same,Percent Growth,"[5]; BT-549, Log10 Concentration −8.0 Molar",92%
same,GI50,"[5]; Homo sapiens, BT-549",656 nM
same,CC50,"[5]; Homo sapiens, BT-549, read-out: LC50",> 100000 nM
same,TGI,[6]; A498,8.53E−7 Molar
same,Percent Growth,"[6]; A498, Log10 Concentration −4.0 Molar",−5%
same,Percent Growth,"[6]; A498, Log10 Concentration −5.0 Molar",−7%
same,Percent Growth,"[6]; A498, Log10 Concentration −6.0 Molar",−4%
same,Percent Growth,"[6]; A498, Log10 Concentration −7.0 Molar",55%
same,Percent Growth,"[6]; A498, Log10 Concentration −8.0 Molar",86%
same,GI50,"[6]; Homo sapiens, A498",122 nM
same,CC50,"[6]; Homo sapiens, A498, read-out: LC50",> 100000 nM
same,GI50,"[7]; Homo sapiens, SK-MEL-28",692 nM
same,CC50,"[7]; Homo sapiens, SK-MEL-28, read-out: LC50",> 100000 nM
same,TGI,[7]; SK-MEL-28,>1.00E−4 Molar
same,Percent Growth,"[7]; SK-MEL-28, Log10 Concentration −4.0 Molar",50%
same,Percent Growth,"[7]; SK-MEL-28, Log10 Concentration −5.0 Molar",49%
same,Percent Growth,"[7]; SK-MEL-28, Log10 Concentration −6.0 Molar",44%
same,Percent Growth,"[7]; SK-MEL-28, Log10 Concentration −7.0 Molar",83%
same,Percent Growth,"[7]; SK-MEL-28, Log10 Concentration −8.0 Molar",91%
same,GI50,"[8]; Homo sapiens, MOLT-4",163 nM
same,CC50,"[8]; Homo sapiens, MOLT-4, read-out: LC50",> 100000 nM
same,TGI,[8]; MOLT-4,>1.00E−4 Molar
same,Percent Growth,"[8]; MOLT-4, Log10 Concentration −4.0 Molar",13%
same,Percent Growth,"[8]; MOLT-4, Log10 Concentration −5.0 Molar",7%
same,Percent Growth,"[8]; MOLT-4, Log10 Concentration −6.0 Molar",12%
same,Percent Growth,"[8]; MOLT-4, Log10 Concentration −7.0 Molar",80%
same,Percent Growth,"[8]; MOLT-4, Log10 Concentration −8.0 Molar",99%
same,GI50,"[9]; Homo sapiens, SF-295",98.3 nM
same,CC50,"[9]; Homo sapiens, SF-295, read-out: LC50",> 100000 nM
same,TGI,[9]; SF-295,6.26E−7 Molar
same,Percent Growth,"[9]; SF-295, Log10 Concentration −4.0 Molar",−15%
same,Percent Growth,"[9]; SF-295, Log10 Concentration −5.0 Molar",−16%
same,Percent Growth,"[9]; SF-295, Log10 Concentration −6.0 Molar",−13%
same,Percent Growth,"[9]; SF-295, Log10 Concentration −7.0 Molar",50%
same,Percent Growth,"[9]; SF-295, Log10 Concentration −8.0 Molar",92%
same,TGI,[10],>1.00E−4 Molar
same,GI50,[10]; Homo sapiens,687 nM
same,CC50,"[10]; Homo sapiens, read-out: LC50",> 100000 nM
same,Percent Growth,[10]; Log10 Concentration −4.0 Molar,23%
same,Percent Growth,[10]; Log10 Concentration −5.0 Molar,26%
same,Percent Growth,[10]; Log10 Concentration −6.0 Molar,45%
same,Percent Growth,[10]; Log10 Concentration −7.0 Molar,75%
same,Percent Growth,[10]; Log10 Concentration −8.0 Molar,95%
same,TGI,[11]; HL-60(TB),9.67E−8 Molar
same,Percent Growth,"[11]; HL-60(TB), Log10 Concentration −4.0 Molar",−20%
same,Percent Growth,"[11]; HL-60(TB), Log10 Concentration −5.0 Molar",−20%
same,Percent Growth,"[11]; HL-60(TB), Log10 Concentration −6.0 Molar",−12%
same,Percent Growth,"[11]; HL-60(TB), Log10 Concentration −7.0 Molar",−1%
same,Percent Growth,"[11]; HL-60(TB), Log10 Concentration −8.0 Molar",89%
same,CC50,"[11]; Homo sapiens, HL-60, read-out: LC50",> 100000 nM
same,GI50,"[11]; Homo sapiens, HL-60(TB)",26.9 nM
same,TGI,[12]; HCC-2998,3.92E−7 Molar
same,Percent Growth,"[12]; HCC-2998, Log10 Concentration −4.0 Molar",−64%
same,Percent Growth,"[12]; HCC-2998, Log10 Concentration −5.0 Molar",−61%
same,Percent Growth,"[12]; HCC-2998, Log10 Concentration −6.0 Molar",−40%
same,Percent Growth,"[12]; HCC-2998, Log10 Concentration −7.0 Molar",58%
same,Percent Growth,"[12]; HCC-2998, Log10 Concentration −8.0 Molar",99%
same,CC50,"[12]; Homo sapiens, HCC 2998, read-out: LC50",2970 nM
same,GI50,"[12]; Homo sapiens, HCC-2998",120 nM
same,tumor growth,[13],significantly inhibited the tumor growth
same,TGI,[14]; HCT-116,1.02E−6 Molar
same,Percent Growth,"[14]; HCT-116, Log10 Concentration −4.0 Molar",−47%
same,Percent Growth,"[14]; HCT-116, Log10 Concentration −5.0 Molar",−47%
same,Percent Growth,"[14]; HCT-116, Log10 Concentration −7.0 Molar",45%
same,Percent Growth,"[14]; HCT-116, Log10 Concentration −8.0 Molar",89%
same,GI50,"[14]; Homo sapiens, HCT-116",75.3 nM
same,CC50,"[14]; Homo sapiens, HCT-116, read-out: LC50",> 100000 nM
same,TGI,[15]; DU-145,4.57E−7 Molar
same,Percent Growth,"[15]; DU-145, Log10 Concentration −4.0 Molar",−28%
same,Percent Growth,"[15]; DU-145, Log10 Concentration −5.0 Molar",−39%
same,Percent Growth,"[15]; DU-145, Log10 Concentration −6.0 Molar",−37%
same,Percent Growth,"[15]; DU-145, Log10 Concentration −7.0 Molar",72%
same,Percent Growth,"[15]; DU-145, Log10 Concentration −8.0 Molar",96%
same,GI50,"[15]; Homo sapiens, DU-145",159 nM
same,CC50,"[15]; Homo sapiens, DU-145, read-out: LC50",> 100000 nM
same,GI50,"[16]; Homo sapiens, SK-MEL-2",89.7 nM
same,CC50,"[16]; Homo sapiens, SK-MEL-2, read-out: LC50",> 100000 nM
same,TGI,[16]; SK-MEL-2,6.16E−7 Molar
same,Percent Growth,"[16]; SK-MEL-2, Log10 Concentration −4.0 Molar",−18%
same,Percent Growth,"[16]; SK-MEL-2, Log10 Concentration −5.0 Molar",−12%
same,Percent Growth,"[16]; SK-MEL-2, Log10 Concentration −6.0 Molar",−13%
same,Percent Growth,"[16]; SK-MEL-2, Log10 Concentration −7.0 Molar",48%
same,Percent Growth,"[16]; SK-MEL-2, Log10 Concentration −8.0 Molar",99%
